Laboratory results from article PMC4882559, “Novel Azetidine-Containing TZT-1027 Analogues as Antitumor Agents” (Marine Drugs, 2016).
In brackets after ≈: the same amount, converted by molar mass. Entries after “also recorded” stand apart in the source; their conditions may differ.

Assays:
[1] = tested on: HCT116 human colon cancer cells; assay: Cancer cell proliferation inhibition (MTT assay), HCT116; format: cell-based; conditions: 72 h incubation, mean ± SD of at least three independent experiments
Protocol: The following cell lines were used for the screening stage, obtained from American Type Culture Collection (ATCC, Manassas, VA, USA); HCT116 human colon cancer cells and A549 human lung carcinoma cell lines were cultured in RPMI 1640 medium supplemented with 10% FBS. Cell cultures were maintained in a humidified atmosphere of 5% CO2 at 37 °C. Cells were seeded at 2000 cells per well in 96-well plates in a volume of 200 μL per well. The test compounds were dissolved in DMSO and diluted with culture medium to different concentrations. After seeding for 24 h, the medium was removed, and […] of the test compound solution was added in duplicates and incubation continued for 72 h at 37 °C in a humidified atmosphere containing 5% CO2. Control cells were treated with vehicle alone. During the last 4 h of incubation, the cells were exposed to tetrazolium dye (MTT) solution (5 mg/mL, […] per well). The generated formazan crystals were dissolved in […] of dimethyl sulfoxide (DMSO), and the absorbance was read spectrophotometrically at 570 nm using an enzyme-linked immunosorbent assay plate reader. The data was calculated using Graph Pad Prism version 5.0 (GraphPad Softwrae, La Jolla, CA, USA). The IC50s were fitted using a non-linear regression model with a sigmoidal dose response.

Human A549 xenograft = assay: In vivo efficacy study, A549 xenograft model; design: species or system BALB/c athymic mice; conditions: for Tumor volume: n = 6, mean (SD on next line); for Relative tumor volume: RTV = Vt/V0, n = 6, mean ± SD
Source text: Pathogen-free, 4–6 week-old, female BALB/c athymic mice (Shanghai SCXK Laboratory Animal Technology Co. Ltd., Shanghai, China) were housed under sterile conditions. Human A549 xenograft was established in the right flanks of athymic mice according to the protocol of the National Cancer Institute. When the tumor reached a volume of 100 mm^3, the mice were randomly assigned into control (n = 6 per group) and treatment groups (n = 6 per group). Control group were given lactate buffer, and treatment groups were iv administered with tested compounds. The size of tumor was measured individually on the indicated days. Tumor volume (V) was calculated as V = (length × width^2)/2. The individual relative tumor volume (RTV) was calculated as follows: RTV = Vt/V0, where Vt represented the last tumor size measurement and V0 represented the pre-dosing tumor size measurement. The animal experimental protocols were approved by the Animal Ethics Committee of School of Pharmacy, Fudan University and the mice were treated in accordance with international animal ethics guidelines.

Solubility of 1a = format: physicochemical
[2] = Liver microsomes metabolic stability, rat
[3] = Liver microsomes metabolic stability, human
[4] = Liver microsomes metabolic stability, mouse

Q: For `CC[C@H](C)[C@@H]([C@@H](CC(=O)N1CCC[C@H]1[C@H](OC)[C@@H](C)C(=O)N1CC(c2ccccc2)C1)OC)N(C)C(=O)[C@@H](NC(=O)C(C(C)C)N(C)C)C(C)C` (stereo in doubt) [1a, (S)-2-((R)-2-(Dimethylamino)-3-methylbutanamido)-N-((3R,4S,5S)-3-methoxy-1-((S)-2-((1R,2R)-1-methoxy-2-methyl-3-oxo-3-(3-phenylazetidin-1-yl)propyl)pyrrolidin-1-yl)-5-methyl-1-oxoheptan-4-yl)-N,3-dimethylbutanamide], which IC50 [1] is on record?
A: 2.1 ± 0.4 nM

Q: And the Tumor volume (Human A549 xenograft; 1 mg/kg iv once a day, day 1)?
A: 149.56 mm3

Q: What about the Relative tumor volume (Human A549 xenograft; 1 mg/kg iv once a day, day 4) of the same molecule?
A: 1.27 ± 0.37

Q: And the Tumor volume (Human A549 xenograft; 1 mg/kg iv once a day, day 4)?
A: 185.88 mm3

Q: And the Relative tumor volume (Human A549 xenograft; 1 mg/kg iv once a day, day 7)?
A: 1.65 ± 0.57

Q: And the Tumor volume (Human A549 xenograft; 1 mg/kg iv once a day, day 7)?
A: 248.97 mm3

Q: And the Relative tumor volume (Human A549 xenograft; 1 mg/kg iv once a day, day 10)?
A: 2.29 ± 0.76

Q: And the Tumor volume (Human A549 xenograft; 1 mg/kg iv once a day, day 10)?
A: 341.75 mm3

Q: And the Relative tumor volume (Human A549 xenograft; 1 mg/kg iv once a day, day 13)?
A: 2.69 ± 0.9

Q: And the Tumor volume (Human A549 xenograft; 1 mg/kg iv once a day, day 13)?
A: 395.43 mm3

Q: And the Relative tumor volume (Human A549 xenograft; 1 mg/kg iv once a day, day 16)?
A: 3.62 ± 1.05

Q: What about the Tumor volume (Human A549 xenograft; 1 mg/kg iv once a day, day 16) of the same molecule?
A: 530.82 mm3

Q: What about the Relative tumor volume (Human A549 xenograft; 1 mg/kg iv once a day, day 19) of the same molecule?
A: 3.86 ± 1.34

Q: And the Tumor volume (Human A549 xenograft; 1 mg/kg iv once a day, day 19)?
A: 563.52 mm3

Q: And the Relative tumor volume (Human A549 xenograft; 1 mg/kg iv once a day, day 22)?
A: 4.69 ± 1.74

Q: What about the Tumor volume (Human A549 xenograft; 1 mg/kg iv once a day, day 22) of the same molecule?
A: 662.64 mm3

Q: And the Relative tumor volume (Human A549 xenograft; 2 mg/kg iv once a day, day 4)?
A: 1.3 ± 0.22

Q: What about the Tumor volume (Human A549 xenograft; 2 mg/kg iv once a day, day 4) of the same molecule?
A: 214.97 mm3

Q: What about the Relative tumor volume (Human A549 xenograft; 2 mg/kg iv once a day, day 7) of the same molecule?
A: 1.8 ± 0.31

Q: What about the Tumor volume (Human A549 xenograft; 2 mg/kg iv once a day, day 7) of the same molecule?
A: 287.02 mm3

Q: And the Relative tumor volume (Human A549 xenograft; 2 mg/kg iv once a day, day 10)?
A: 2.44 ± 0.46

Q: What about the Tumor volume (Human A549 xenograft; 2 mg/kg iv once a day, day 10) of the same molecule?
A: 381.31 mm3

Q: What about the Relative tumor volume (Human A549 xenograft; 2 mg/kg iv once a day, day 13) of the same molecule?
A: 3.22 ± 0.6

Q: What about the Tumor volume (Human A549 xenograft; 2 mg/kg iv once a day, day 13) of the same molecule?
A: 508.66 mm3

Q: And the Relative tumor volume (Human A549 xenograft; 2 mg/kg iv once a day, day 16)?
A: 4.34 ± 0.97

Q: And the Tumor volume (Human A549 xenograft; 2 mg/kg iv once a day, day 16)?
A: 682.39 mm3

Q: And the Relative tumor volume (Human A549 xenograft; 2 mg/kg iv once a day, day 19)?
A: 5.15 ± 1.13

Q: And the Tumor volume (Human A549 xenograft; 2 mg/kg iv once a day, day 19)?
A: 813.25 mm3

Q: And the Relative tumor volume (Human A549 xenograft; 2 mg/kg iv once a day, day 22)?
A: 5.5 ± 2.15

Q: And the Tumor volume (Human A549 xenograft; 2 mg/kg iv once a day, day 22)?
A: 862.75 mm3

Q: And the Tumor volume (Human A549 xenograft; 5 mg/kg iv once a day, day 1)?
A: 205.7 mm3

Q: What about the Relative tumor volume (Human A549 xenograft; 5 mg/kg iv once a day, day 4) of the same molecule?
A: 1.37 ± 0.34

Q: And the Tumor volume (Human A549 xenograft; 5 mg/kg iv once a day, day 4)?
A: 266.39 mm3

Q: What about the Relative tumor volume (Human A549 xenograft; 5 mg/kg iv once a day, day 7) of the same molecule?
A: 1.53 ± 0.41

Q: And the Tumor volume (Human A549 xenograft; 5 mg/kg iv once a day, day 7)?
A: 287.02 mm3

Q: And the Relative tumor volume (Human A549 xenograft; 5 mg/kg iv once a day, day 10)?
A: 2.05 ± 0.62

Q: And the Tumor volume (Human A549 xenograft; 5 mg/kg iv once a day, day 10)?
A: 380.17 mm3

Q: What about the Relative tumor volume (Human A549 xenograft; 5 mg/kg iv once a day, day 13) of the same molecule?
A: 2.7 ± 0.88

Q: And the Tumor volume (Human A549 xenograft; 5 mg/kg iv once a day, day 13)?
A: 487.47 mm3

Q: And the Relative tumor volume (Human A549 xenograft; 5 mg/kg iv once a day, day 16)?
A: 2.97 ± 0.91

Q: What about the Tumor volume (Human A549 xenograft; 5 mg/kg iv once a day, day 16) of the same molecule?
A: 554.26 mm3

Q: And the Relative tumor volume (Human A549 xenograft; 5 mg/kg iv once a day, day 19)?
A: 3.51 ± 0.82

Q: What about the Tumor volume (Human A549 xenograft; 5 mg/kg iv once a day, day 19) of the same molecule?
A: 668.46 mm3

Q: What about the Relative tumor volume (Human A549 xenograft; 5 mg/kg iv once a day, day 22) of the same molecule?
A: 4.19 ± 1.41

Q: What about the Tumor volume (Human A549 xenograft; 5 mg/kg iv once a day, day 22) of the same molecule?
A: 789.59 mm3

Q: And the “toxicity and weight loss” value (Human A549 xenograft; 1, 2 and 5 mg/kg/day iv for 22 days, A549 xenograft mice)?
A: no overt toxicity and weight-loss; also recorded: did not show any severe toxicity

Q: What about the solubility (Solubility of 1a; distilled water, pH 7.4, water) of the same molecule?
A: 346 µg/mL (≈ 485 µM)

Q: And the “solubility (in words)” value (Solubility of 1a; limited exploration of higher in vivo dosage)?
A: poor solubility

Q: What about the Clint ([2]; Rat, apparent intrinsic clearance, 1 μM) of the same molecule?
A: 262.12 mL/min/kg

Q: And the half-life at 1 μM ([2]; rat, microsomes)?
A: 9.48 min

Q: What about the Clint ([3]; Human, apparent intrinsic clearance, 1 μM) of the same molecule?
A: 92.93 mL/min/kg

Q: And the half-life at 1 μM ([3]; human, microsomes)?
A: 18.7 min

Q: And the T1/2 ([4]; Mouse liver microsomes, metabolic stability, 1 μM)?
A: less than 2 min

Q: And the Clint ([4]; Mouse, apparent intrinsic clearance, 1 μM)?
A: 2981.16 mL/min/kg

Q: What about the half-life at 1 μM ([4]; mouse, microsomes) of the same molecule?
A: 1.83 min
